# Where “and” joins values, the source holds several entries; their conditions need not be identical. Identical values can stand only once.
# Experiments:
# pituitary-ovarian axis = conditions: sufficient single dose, monkeys, follicular phase; cited from earlier work
# [1] = system: adult female cynomolgus monkeys; test: Part II: titering the GnRHant dose to individual monkeys with periodic progesterone challenge tests (withdrawal bleeding versus amenorrhea, serum estradiol RIA); type: in vivo
# Protocol: (§1) Eleven adult female cynomolgus monkeys having regular and presumably ovulatory menstrual cycles were entered into the study. Body weights were determined monthly. Menstrual bleeding and spotting were recorded daily by visual inspection of external genitalia and insertion of vaginal swabs using a saline moistened cotton-tipped applicator, respectively. Blood samples were collected from femoral vessels and the serum stored for subsequent RIA of estradiol and progesterone. Coefficients of variation for these assays were: 7.4 and 11.1; and 7.0 and 10.9%, respectively, for within and between assays. The GnRH antagonist (GnRHant) used was Nal-Glu: [Ac-D2NAL, 4ClDPhe^2, D3Pal^3, Arg^5, DGlu^6 (AA), DAla^10 ]-GnRH.
# Concurrently, a pair of progesterone-loaded silastic implants were inserted sc during GnRHant treatment from day 20 and 30, and then removed. If withdrawal menses occurred during the next week, the individual Nal-Glu dose was raised to 0.1 mg/kg daily. […] Again, amenorrhea or withdrawal menses was recorded.
# For definition, withdrawal bleeding was scored when blood was on the external genitalia for two or more consecutive days within the week following progesterone withdrawal. Spotting was scored when blood was evident only by coloration of the cotton swab upon insertion into the vagina.
# [2] = system: adult female cynomolgus monkeys; test: Part I dose-finding study: residual serum estradiol (RIA) during 14 days of daily im GnRH antagonist; type: in vivo; conditions: 0.1 mg/kg im daily; individual monkeys for whom the dose was too much, predominately
# Protocol: as §1
# In Part I of the study, the object was to perform a brief dose-finding study that indicated residual serum estradiol levels in intact primates previously illustrating regular menstrual cycles. Specifically sought was an approximation of the minimal daily im dose of Nal-Glu sufficient to suppress circulating estradiol levels into the target range: less than 45 pg/ml but more than 35 pg/ml. Beginning on day 2 of the menstrual cycle, Nal-Glu GnRHant, suspended in sesame oil, was administered between 9 and 10 am in doses of 0.1 (n=5) and 0.3 mg/kg (n=6) for 14 days. Femoral blood was obtained daily under ketamine anesthesia. […]
Substance,effect on the pituitary-ovarian axis (pituitary-ovarian axis),mean serum estradiol concentrations ([1]; 8 monkeys after increase of the dose to 0.1 mg/kg im daily),"Amenorrhea Achieved (Monkeys) ([1]; first progesterone challenge test, withdrawal week days 31-37, all 11 monkeys at 0.05 mg/kg im daily)","monkeys manifesting frank withdrawal menses ([1]; first progesterone challenge test, 0.05 mg/kg im daily)","serum estradiol ([1]; lone resistant monkey at 0.2 mg/kg im daily, ultimately)","Amenorrhea Achieved (Monkeys) ([1]; second progesterone challenge test, withdrawal week days 61-67, doses 0.05 or 0.1 mg/kg im daily)","withdrawal outcome of the two monkeys that remained on 0.05 mg/kg ([1]; second progesterone challenge test, 0.05 mg/kg im daily)","monkeys achieving withdrawal amenorrhea ([1]; second progesterone challenge test, the nine females raised to 0.1 mg/kg im daily on day 31)","mean serum estradiol levels ([1]; the two primates amenorrheic at 0.05 mg/kg im daily, target zone 35 to 45 pg/ml)","Amenorrhea Achieved (Monkeys) ([1]; third progesterone challenge test, withdrawal week days 91-97, doses 0.05, 0.1 or 0.2 mg/kg im daily)","Incidence of Spotting ([1]; week of progesterone withdrawal days 31-37, 0.05 mg/kg im daily)","Incidence of Spotting ([1]; week of progesterone withdrawal days 61-67, 0.05 or 0.1 mg/kg im daily)","Incidence of Spotting ([1]; week of progesterone withdrawal days 91-97, 0.05, 0.1 or 0.2 mg/kg im daily)",serum estradiols of some primates [2]
D-Ac-D-2-Nal^1 -DpClPhe^2 -D-3-Pal^3 -Ser^4 -NiLys^5 -D-NicLys^6 -Leu^7 -ILys^8 -Pro^9 -D-Ala^10 [antide],immediate and sustained inhibition of the pituitary-ovarian axis,,,,,,,,,,,,,
"[Ac-D2NAL, 4ClDPhe^2, D3Pal^3, Arg^5, DGlu^6 (AA), DAla^10 ]-GnRH [Nal-Glu]",,approximately 40 pg/ml,two and 2/11,Nine,under 20 pg/ml,10/11,remained amenorrheic,8 of 9,hovered in or near the target zone,all eleven and 11/11,13 days,12 days,0 days,< 25 pg/mL
